According to patent US20220235011A1, “PHTHALAZINONE COMPOUNDS AND USE THEREOF” (ST PHARM CO., LTD., priority 2019, published 2022):

molecular target: T1, Sirt6 (Homo sapiens, UniProt Q8N6T7); assay: Measurement of Sirt6 Activity (CycLex Sirt6 Deacetylase Fluorometric Assay Kit); format: biochemical; conditions: compound at 10 μM; fluorescence relative to the group without compound treatment (positive control group)
T1 construct: purchased CycLex CY-1156V2
Method in brief: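 Recombinant Sirt6 with fluoro-labelled acetyl-lysine peptide, NAD and lysylendopeptidase developer, compound added from 10× stock in PBS; 1 h at room temperature. Fluorescence read at ex 490/em 530 nm; activation expressed as fluorescence ratio relative to enzyme without compound.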

T1 sequence (Q8N6T7 whole entry): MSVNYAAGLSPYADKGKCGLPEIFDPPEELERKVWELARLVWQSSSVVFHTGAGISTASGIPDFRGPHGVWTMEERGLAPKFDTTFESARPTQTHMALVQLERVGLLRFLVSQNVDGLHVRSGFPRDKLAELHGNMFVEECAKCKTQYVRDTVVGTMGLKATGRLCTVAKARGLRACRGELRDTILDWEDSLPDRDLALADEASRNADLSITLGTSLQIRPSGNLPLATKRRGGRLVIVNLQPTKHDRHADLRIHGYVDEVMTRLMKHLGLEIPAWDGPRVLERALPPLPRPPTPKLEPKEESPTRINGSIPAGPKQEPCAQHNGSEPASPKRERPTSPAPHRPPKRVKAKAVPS

Row | SMILES | Sirt6 Activity (% activity, 10 μM) [% activity]
1 | CN(C)S(=O)(=O)c1cccc(-c2nn(-c3ccc(F)cc3)c(=O)c3ccccc23)c1 [Example 88, 3-(3-(4-Fluorophenyl)-4-oxo-3,4-dihydrophthalazin-1-yl)-N,N-dimethylbenzene Sulfonamide] | 180
2 | C/[N+]([O-])=C/c1cccc(-c2nn(-c3ccccc3F)c(=O)c3ccccc23)c1 [Example 94, (Z)-1-(3-(3-(2-Fluorophenyl)-4-oxo-3,4-dihydrophthalazin-1-yl)phenyl)-N-methyl Methanimine Oxide] | 272
3 | CC(C)/[N+]([O-])=C/c1cccc(-c2nn(-c3ccccc3F)c(=O)c3ccccc23)c1 [Example 95, (Z)-1-(3-(3-(2-Fluorophenyl)-4-oxo-3,4-dihydrophthalazin-1-yl)phenyl)-N-isopropyl Methanimine Oxide] | 133
4 | CC(C)(C)/[N+]([O-])=C/c1cccc(-c2nn(-c3ccccc3F)c(=O)c3ccccc23)c1 [Example 96, (Z)—N-tert-Butyl-1-(3-(3-(2-fluorophenyl)-4-oxo-3,4-dihydrophthalazin-1-yl)phenyl)methanimine Oxide] | 176
5 | CNS(=O)(=O)c1cccc(-c2nn(-c3ccccc3F)c(=O)c3ccccc23)c1 [Example 99, 3-(3-(2-Fluorophenyl)-4-oxo-3,4-dihydrophthalazin-1-yl)-N-methylbenzenesulfonamide] | 259
6 | CN(C)S(=O)(=O)c1cccc(-c2nn(-c3ccccc3F)c(=O)c3ccccc23)c1 [Example 101, 3-(3-(2-Fluorophenyl)-4-oxo-3,4-dihydrophthalazin-1-yl)-N,N-dimethylbenzene Sulfonamide] | 153
7 | C/[N+]([O-])=C/c1cccc(-c2nn(-c3c(F)cccc3F)c(=O)c3ccccc23)c1 [Example 102, (Z)-1-(3-(3-(2,6-Difluorophenyl)-4-oxo-3,4-dihydrophthalazin-1-yl)phenyl)-N-methylmethanimine Oxide] | 206
8 | CC(C)/[N+]([O-])=C/c1cccc(-c2nn(-c3c(F)cccc3F)c(=O)c3ccccc23)c1 [Example 103, (Z)-1-(3-(3-(2,6-Difluorophenyl)-4-oxo-3,4-dihydrophthalazin-1-yl)phenyl)-N-isopropylmethanimine Oxide] | 324
9 | CC(C)(C)/[N+]([O-])=C/c1cccc(-c2nn(-c3c(F)cccc3F)c(=O)c3ccccc23)c1 [Example 104, (Z)—N-tert-Butyl-1-(3-(3-(2,6-difluorophenyl)-4-oxo-3,4-dihydrophthalazin-1-yl)phenyl)methanimine Oxide] | 284
10 | CNS(=O)(=O)c1cccc(-c2nn(-c3c(F)cccc3F)c(=O)c3ccccc23)c1 [Example 107, 3-(3-(2,6-Difluorophenyl)-4-oxo-3,4-dihydrophthalazin-1-yl)-N-methylbenzenesulfonamide] | 233
11 | CN(C)S(=O)(=O)c1cccc(-c2nn(-c3c(F)cccc3F)c(=O)c3ccccc23)c1 [Example 109, 3-(3-(2,6-Difluorophenyl)-4-oxo-3,4-dihydrophthalazin-1-yl)-N,N-dimethylbenzenesulfonamide] | 188
12 | O=c1c2ccccc2c(-c2ccc[n+]([O-])c2)nn1-c1ccc(F)cc1 [Example 114, 3-(3-(4-Fluorophenyl)-4-oxo-3,4-dihydrophthalazin-1-yl)pyridine 1-oxide] | 226
13 | O=c1c2ccccc2c(-c2cccnc2)nn1-c1ccc(F)cc1F [Example 115, 2-(2,4-Difluorophenyl)-4-(pyridin-3-yl)phthalazin-1(2H)-one] | 405
14 | O=c1c2ccccc2c(-c2cccnc2)nn1-c1c(F)cccc1F [Example 116, 2-(2,6-Difluorophenyl)-4-(pyridin-3-yl)phthalazin-1(2H)-one] | 227
15 | O=c1c2ccccc2c(-c2ccc[n+]([O-])c2)nn1-c1c(F)cccc1F [Example 118, 3-(3-(2,6-Difluorophenyl)-4-oxo-3,4-dihydrophthalazin-1-yl)pyridine 1-oxide] | 231

Further lines, results first:

Row | Sirt6 Activity (% activity, 10 μM) [% activity] | SMILES
16 | 339 | CS(=O)(=O)c1cccc(-c2nn(-c3ccc(F)cc3F)c(=O)c3ccccc23)c1 [Example 89, 2-(2,4-Difluorophenyl)-4-(3-(methylsulfonyl)phenyl)phthalazin-1 (2H)-one]
17 | 283 | CCS(=O)(=O)c1cccc(-c2nn(-c3ccc(F)cc3F)c(=O)c3ccccc23)c1 [Example 90, 2-(2,4-Difluorophenyl)-4-(3-(ethylsulfonyl)phenyl)phthalazin-1(2H)-one]
18 | 272 | CNS(=O)(=O)c1cccc(-c2nn(-c3ccc(F)cc3F)c(=O)c3ccccc23)c1 [Example 91, 3-(3-(2,4-Difluorophenyl)-4-oxo-3,4-dihydrophthalazin-1-yl)-N-methylbenzene Sulfonamide]
19 | 208 | CCNS(=O)(=O)c1cccc(-c2nn(-c3ccc(F)cc3F)c(=O)c3ccccc23)c1 [Example 92, 3-(3-(2,4-Difluorophenyl)-4-oxo-3,4-dihydrophthalazin-1-yl)-N-ethylbenzene Sulfonamide]
20 | 227 | CN(C)S(=O)(=O)c1cccc(-c2nn(-c3ccc(F)cc3F)c(=O)c3ccccc23)c1 [Example 93, 3-(3-(2,4-Difluorophenyl)-4-oxo-3,4-dihydrophthalazin-1-yl)-N,N-dimethylbenzene Sulfonamide]
21 | 286 | CS(=O)(=O)c1cccc(-c2nn(-c3ccccc3F)c(=O)c3ccccc23)c1 [Example 97, 2-(2-Fluorophenyl)-4-(3-(methylsulfonyl)phenyl)phthalazin-1(2H)-one]
22 | 264 | CCS(=O)(=O)c1cccc(-c2nn(-c3ccccc3F)c(=O)c3ccccc23)c1 [Example 98, 4-(3-(Ethylsulfonyl)phenyl)-2-(2-fluorophenyl)phthalazin-1(2H)-one]
23 | 196 | CCNS(=O)(=O)c1cccc(-c2nn(-c3ccccc3F)c(=O)c3ccccc23)c1 [Example 100, N-Ethyl-3-(3-(2-fluorophenyl)-4-oxo-3,4-dihydrophthalazin-1-yl)benzenesulfonamide]
24 | 226 | CS(=O)(=O)c1cccc(-c2nn(-c3c(F)cccc3F)c(=O)c3ccccc23)c1 [Example 105, 2-(2,6-Difluorophenyl)-4-(3-(methylsulfonyl)phenyl)phthalazin-1 (2H)-one]
25 | 141 | CCS(=O)(=O)c1cccc(-c2nn(-c3c(F)cccc3F)c(=O)c3ccccc23)c1 [Example 106, 2-(2,6-Difluorophenyl)-4-(3-(ethylsulfonyl)phenyl)phthalazin-1(2H)-one]
26 | 209 | CCNS(=O)(=O)c1cccc(-c2nn(-c3c(F)cccc3F)c(=O)c3ccccc23)c1 [Example 108, 3-(3-(2,6-Difluorophenyl)-4-oxo-3,4-dihydrophthalazin-1-yl)-N-ethylbenzenesulfonamide]
27 | 129 | CS(=O)(=O)c1cccc(-c2nn(-c3ccccc3)c(=O)c3ccc(F)cc23)c1 [Example 110, 6-Fluoro-4-(3-(methylsulfonyl)phenyl)-2-phenylphthalazin-1(2H)-one]
28 | 126 | CNS(=O)(=O)c1cccc(-c2nn(-c3ccccc3)c(=O)c3ccc(F)cc23)c1 [Example 111, 3-(7-Fluoro-4-oxo-3-phenyl-3,4-dihydrophthalazin-1-yl)-N-methylbenzenesulfonamide]
29 | 103 | CS(=O)(=O)c1cccc(-c2nn(-c3ccccc3)c(=O)c3cc(F)ccc23)c1 [Example 112, 7-Fluoro-4-(3-(methylsulfonyl)phenyl)-2-phenylphthalazin-1(2H)-one]
30 | 116 | CNS(=O)(=O)c1cccc(-c2nn(-c3ccccc3)c(=O)c3cc(F)ccc23)c1 [Example 113, 3-(6-Fluoro-4-oxo-3-phenyl-3,4-dihydrophthalazin-1-yl)-N-methylbenzenesulfonamide]
31 | 318 | O=c1c2ccccc2c(-c2ccc[n+]([O-])c2)nn1-c1ccc(F)cc1F [Example 117, 3-(3-(2,4-Difluorophenyl)-4-oxo-3,4-dihydrophthalazin-1-yl)pyridine 1-oxide]
32 | 166 | CS(=O)(=O)c1cccc(-c2nn(-c3ccc(F)cc3F)c(=O)c3ccc(F)cc23)c1 [Example 119, 2-(2,4-Difluorophenyl)-6-fluoro-4-(3-(methylsulfonyl)phenyl)phthalazin-1(2H)-one]
33 | 178 | CS(=O)(=O)c1cccc(-c2nn(-c3ccc(F)cc3F)c(=O)c3cc(F)ccc23)c1 [Example 120, 2-(2,4-Difluorophenyl)-7-fluoro-4-(3-(methylsulfonyl)phenyl)phthalazin-1(2H)-one]
34 | 157 | CNS(=O)(=O)c1cccc(-c2nn(-c3ccc(F)cc3F)c(=O)c3ccc(F)cc23)c1 [Example 121, 3-(3-(2,4-Difluorophenyl)-7-fluoro-4-oxo-3,4-dihydrophthalazin-1-yl)-N-methylbenzenesulfonamide]
35 | 177 | CNS(=O)(=O)c1cccc(-c2nn(-c3ccc(F)cc3F)c(=O)c3cc(F)ccc23)c1 [Example 122, 3-(3-(2,4-Difluorophenyl)-6-fluoro-4-oxo-3,4-dihydrophthalazin-1-yl)-N-methylbenzenesulfonamide]
36 | 253 | CCS(=O)(=O)c1cccc(-c2nn(-c3ccc(F)cc3F)c(=O)c3ccc(F)cc23)c1 [Example 123, 2-(2,4-Difluorophenyl)-4-(3-(ethylsulfonyl)phenyl)-6-fluorophthalazin-1(2H)-one]
